Reference: patent EP0735879B1, “USE OF AMINO CYCLODEXTRINS FOR THE AQUEOUS SOLUBILISATION OF DIBENZAZEPINES FOR USE AS AN ANTIEPILEPTIC AGENT” (COMMISSARIAT A L'ENERGIE ATOMIQUE, priority 1993, dated 1995)
In brackets after ≈: the same amount, converted by molar mass. Several values for one entry are separate records, joined by “and”; a condition that tells them apart may be missing. Identical values can stand only once.

What was measured:
[1] = 25°C; cited from earlier work
physchem = assay type: physicochemical; conditions: 25°C, read-out: solubilité de la carbamazépine
Protocol: Dans cet exemple on évalue la solubilisation de la carbamazépine par différents dérivés de cyclodextrines dans des conditions standardisées. Les mesures de solubilité sont réalisées à 25°C en présence de la cyclodextrine considérée à la concentration de 25 mmol/l, le pH de la solution étant ajusté dans tous les cas à 7,4 pour simuler autant que posible les conditions physiologiques.

in vitro = conditions: human, erythrocytes, pH 7
Protocol: Les propriétés hémolytiques du chlorhydrate ont été testées en mettant en contact 0,4 ml d'une suspension d'érythrocytes humains avec 4 ml de la solution du chlorhydrate dans 10 mmol d'un tampon phosphate isotonique à un pH de 7,4, pendant 30 minutes à 37°C.

[2] = Solubility in water of the cyclodextrin; assay type: physicochemical; conditions: 20°C, read-out: solubilité dans l'eau
[3] = test system: rat Sprague-Dawley mâle et femelle; test: Acute toxicity, intravenous injection; assay type: in vivo; conditions: voie intraveineuse, chlorhydrate, 2g/kg de poids corporel
Escherichia Coli = test: Ames test, mutagenicity; assay type: cell-based; conditions: test de AMES, souches d'Escherichia Coli
Salmonella typhimurium = test: Ames test, mutagenicity; assay type: cell-based; conditions: test de AMES, souches de Salmonella typhimurium
[4] = pH of an aqueous solution of the hydrochloride; assay type: physicochemical; conditions: solution à 1 % en poids du chlorhydrate dans de l'eau

solubility (physchem; phosphate buffer, pH 7.4, aqueous buffer, Tampon Phosphate 7,4, without cyclodextrin) [µM]	solubility (physchem; pure water, water, Eau pure, without cyclodextrin) [µM]	SMILES	solubilité dans l'eau pure [1] [µg/mL]	HC50 at 0.5 h (in vitro)	solubility [2] [mg/mL]	mortalité [3]	activité mutagène (Escherichia Coli)	activité mutagène (Salmonella typhimurium)	pH [4]
< 70	< 50	NC(=O)N1c2ccccc2C=Cc2ccccc21 [Carbamazépine, carbamazépine]	12	–	–	–	–	–	–
–	–	OC[C@H]1O[C@@H]2O[C@H]3[C@H](O)[C@@H](O)[C@@H](O[C@H]4[C@H](O)[C@@H](O)[C@@H](O[C@H]5[C@H](O)[C@@H](O)[C@@H](O[C@H]6[C@H](O)[C@@H](O)[C@@H](O[C@H]7[C@H](O)[C@@H](O)[C@@H](O[C@H]8[C@H](O)[C@@H](O)[C@@H](O[C@H]1[C@H](O)[C@H]2O)O[C@@H]8CO)O[C@@H]7CO)O[C@@H]6CO)O[C@@H]5CO)O[C@@H]4CO)O[C@@H]3CO [β-CD, β-cyclodextrine, reference compound]	–	5 mM and ~6000 µg/mL	–	–	–	–	–
–	–	NC[C@H]1O[C@@H]2O[C@H]3[C@H](O)[C@@H](O)[C@@H](O[C@H]4[C@H](O)[C@@H](O)[C@@H](O[C@H]5[C@H](O)[C@@H](O)[C@@H](O[C@H]6[C@H](O)[C@@H](O)[C@@H](O[C@H]7[C@H](O)[C@@H](O)[C@@H](O[C@H]8[C@H](O)[C@@H](O)[C@@H](O[C@H]1[C@H](O)[C@H]2O)O[C@@H]8CO)O[C@@H]7CO)O[C@@H]6CO)O[C@@H]5CO)O[C@@H]4CO)O[C@@H]3CO [β-CD-NH2, mono-6-amino-β-cyclodextrine]	–	~30 mM and ~35000 µg/mL	200 (≈ 176 mM)	aucune mortalité	aucune activité mutagène	aucune activité mutagène	6,8
